PMC10447463, “Data-mining unveils structure–property–activity correlation of viral infectivity enhancing self-assembling peptides” (Nature Communications, 2023)
Read-outs that look alike come from different tables or passages of the source.

Tests used:
[1] = system: HIV-1 infection of TZM-bl cells; experiment: HIV-1 infectivity enhancement assay, β-galactosidase luminescence; type: cell-based; conditions: for Rel-EFC / Log10 Infection Rel EFC: 1.3 µM peptide; for Rel-EFC: infection relative to EF-C (QCKIKQIINMWQ = 1); for Log10 Infection Rel EFC: log10 of infection relative to EF-C; for Log Infectivity: Log10 infection relative to EF-C, TZM-bl cells, asymmetric std dev errors; for Log10 Infection Rel EF-C: HIV-1 infection of TZM-bl cells; for Log10 of Rel to EFC (Feb2021): Log10 of infection relative to EF-C, all peptides of FigS16; for Abs. Inf.: absolute infection signal, HIV-1 on TZM-bl cells, β-galactosidase luminescence; for Log10 Inf. rel. to EF-C: log10 of HIV-1 infection of TZM-bl cells relative to EF-C (EF-C = 0)
[2] = type: physicochemical; conditions: for Tht category (> 2 to blank = +): Fig S10 panel D; for ThT Cat. / ThT-Fluorescence (categorical): ThT-active if fluorescence at least twice the control
Outline: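 Preformed peptide fibrils (1 mg/mL) mixed with 50 µM ThT in PBS, 15 min at RT, fluorescence ex 440/em 488 nm versus PBS blank, triplicates. Zeta potential: peptides at 1 mg/mL in PBS pH 7.4, aged 1 d at RT, diluted in 1 mM KCl, Smoluchowski from electrophoretic mobility.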

[3] = Conversion rate (CR) assay with fluorescamine; type: physicochemical; design: key to CR: % = 100−100×filtrate/original fluorescence intensity; conditions: conversion rate, fluorescamine assay; for CR / %: Fig. S7 panel B
Outline: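 To obtain β-sheet content, 1 mg/mL PNF solutions are freeze-dried and the powders recorded by ATR FT-IR at 2 cm^-1 resolution with 64 scans. Free monomer for CR is removed by 3 kDa MWCO centrifugation at 4 °C, and amines in filtrate and unfiltered material are detected with fluorescamine.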

[4] = Fig. S7 panel A (plotted against β-sheet content)
[5] = Fig. S7 panel B (plotted against CR), rounded to two decimals
[6] = Log10 of infection rate relative to EF-C, Figure 3A source data
[7] = infection rate relative to EF-C, log10, data of Figure 2D
[8] = infection rate relative to EF-C, log10, source data of Figure 2C
[9] = ThT fluorescence category, 1 if Rel. ThT >2

## QCKFKQFFNMWQ
[1]
  Rel-EFC: 0,01
  Log10 Infection Rel EFC: -2,18
  Log10 of Rel to EFC (Feb2021): -0.61
  Abs. Inf.: 30896.66667
  Log10 Inf. rel. to EF-C: -0.6059
[1]; [4]
  Log Infectivity: -0.6059
[1]; [5]
  Log Infectivity: -0.61
[1]; [6]
  Log10 Infection Rel EF-C: -0.61
[1]; [7]
  Log10 Infection Rel EF-C: -0.6059
[1]; [8]
  Log10 Infection Rel EF-C: -0.61
[2]
  Tht category (> 2 to blank = +): 1 (ThT. Cat is 1, if Rel. ThT >2)
  ThT Cat. / ThT-Fluorescence (categorical): 1 (ThT. Cat is 1, if Rel. ThT >2)
[2]; Fig S10 panel E
  ThT Cat.: 1 (ThT. Cat is 1, if Rel. ThT >2)
[2]; ThT category, 1 if Rel. ThT >2
  ThT Cat,: 1 (ThT. Cat is 1, if Rel. ThT >2)
  ThT Cat.: 1 (ThT. Cat is 1, if Rel. ThT >2)
[3]
  CR / %: 98.7%
  CR: 98.72

## QCKIKIQINM
[1]
  Rel-EFC: 0,4
  Log10 Infection Rel EFC: -0,4
  Log10 of Rel to EFC (Feb2021): -0.4
  Abs. Inf.: 15250
  Log10 Inf. rel. to EF-C: -0.4024
[1]; [4]
  Log Infectivity: -0.4024
[1]; [5]
  Log Infectivity: -0.4
[1]; [6]
  Log10 Infection Rel EF-C: -0.4
[1]; [7]
  Log10 Infection Rel EF-C: -0.4024
[1]; [8]
  Log10 Infection Rel EF-C: -0.4024
[2]
  Tht category (> 2 to blank = +): 1 (ThT. Cat is 1, if Rel. ThT >2)
  ThT Cat. / ThT-Fluorescence (categorical): 1 (ThT. Cat is 1, if Rel. ThT >2)
[2]; Fig S10 panel E
  ThT Cat.: 1 (ThT. Cat is 1, if Rel. ThT >2)
[2]; ThT category, 1 if Rel. ThT >2
  ThT Cat,: 1 (ThT. Cat is 1, if Rel. ThT >2)
  ThT Cat.: 1 (ThT. Cat is 1, if Rel. ThT >2)
[3]
  CR / %: 89.7%
  CR: 89.7

## RGDCKFKFQF
[1]
  Rel-EFC: 0,15
  Log10 Infection Rel EFC: -0,82
  Log10 of Rel to EFC (Feb2021): -0.82
[1]; [4]
  Log Infectivity: -0.8186
[1]; [5]
  Log Infectivity: -0.82
[1]; [6]
  Log10 Infection Rel EF-C: -0.82
[1]; [7]
  Log10 Infection Rel EF-C: -0.8186
[1]; [8]
  Log10 Infection Rel EF-C: -0.8186
[2]
  Tht category (> 2 to blank = +): 1 (ThT. Cat is 1, if Rel. ThT >2)
  ThT Cat. / ThT-Fluorescence (categorical): 1 (ThT. Cat is 1, if Rel. ThT >2)
[2]; Fig S10 panel E
  ThT Cat.: 1 (ThT. Cat is 1, if Rel. ThT >2)
[2]; ThT category, 1 if Rel. ThT >2
  ThT Cat,: 1 (ThT. Cat is 1, if Rel. ThT >2)
[2]; [9]
  ThT Cat.: 1 (ThT. Cat is 1, if Rel. ThT >2)
[3]
  CR / %: 85.5%
  CR: 85.47

## RGDKIKIQIC
[1]
  Rel-EFC: 0,83
  Log10 Infection Rel EFC: -0,08
  Log10 of Rel to EFC (Feb2021): -0.08
[1]; [4]
  Log Infectivity: -0.07993
[1]; [5]
  Log Infectivity: -0.08
[1]; [6]
  Log10 Infection Rel EF-C: -0.08
[1]; [7]
  Log10 Infection Rel EF-C: -0.07993
[1]; [8]
  Log10 Infection Rel EF-C: -0.07993
[2]
  Tht category (> 2 to blank = +): 1 (ThT. Cat is 1, if Rel. ThT >2)
  ThT Cat. / ThT-Fluorescence (categorical): 1 (ThT. Cat is 1, if Rel. ThT >2)
[2]; Fig S10 panel E
  ThT Cat.: 1 (ThT. Cat is 1, if Rel. ThT >2)
[2]; ThT category, 1 if Rel. ThT >2
  ThT Cat,: 1 (ThT. Cat is 1, if Rel. ThT >2)
[2]; [9]
  ThT Cat.: 1 (ThT. Cat is 1, if Rel. ThT >2)
[3]
  CR / %: 80%
  CR: 80

## RGDKIKIQINM
[1]
  Rel-EFC: 0,41
  Log10 Infection Rel EFC: -0,38
  Log10 of Rel to EFC (Feb2021): -0.38
[1]; [4]
  Log Infectivity: -0.3838
[1]; [5]
  Log Infectivity: -0.38
[1]; [6]
  Log10 Infection Rel EF-C: -0.38
[1]; [7]
  Log10 Infection Rel EF-C: -0.3838
[1]; [8]
  Log10 Infection Rel EF-C: -0.3838
[2]
  Tht category (> 2 to blank = +): 1 (ThT. Cat is 1, if Rel. ThT >2)
  ThT Cat. / ThT-Fluorescence (categorical): 1 (ThT. Cat is 1, if Rel. ThT >2)
[2]; Fig S10 panel E
  ThT Cat.: 1 (ThT. Cat is 1, if Rel. ThT >2)
[2]; ThT category, 1 if Rel. ThT >2
  ThT Cat,: 1 (ThT. Cat is 1, if Rel. ThT >2)
[2]; [9]
  ThT Cat.: 1 (ThT. Cat is 1, if Rel. ThT >2)
[3]
  CR / %: 60.9%
  CR: 60.92

## RGDKIKIQINMC
[1]
  Rel-EFC: 1,07
  Log10 Infection Rel EFC: 0,03
  Log10 of Rel to EFC (Feb2021): 0.03
[1]; [5]
  Log Infectivity: 0.03
[1]; [6]
  Log10 Infection Rel EF-C: 0.03
[1]; [7]
  Log10 Infection Rel EF-C: 0.02911
[1]; [8]
  Log10 Infection Rel EF-C: 0.02911
[2]; ThT category, 1 if Rel. ThT >2
  ThT Cat,: 0 (ThT-inactive (N-Fold <2))
[2]; [9]
  ThT Cat.: 0 (ThT-inactive (N-Fold <2))
[2]
  ThT Cat. / ThT-Fluorescence (categorical): 0 (ThT-inactive (N-Fold <2))
[3]
  CR / %: 60%
  CR: 60

## RGDKIKIQINMWQ
[1]
  Rel-EFC: 0,76
  Log10 Infection Rel EFC: -0,12
  Log10 of Rel to EFC (Feb2021): -0.12
[1]; [4]
  Log Infectivity: -0.1175
[1]; [5]
  Log Infectivity: -0.12
[1]; [6]
  Log10 Infection Rel EF-C: -0.12
[1]; [7]
  Log10 Infection Rel EF-C: -0.1175
[1]; [8]
  Log10 Infection Rel EF-C: -0.1175
[2]
  Tht category (> 2 to blank = +): 0 (ThT-inactive (N-Fold <2))
  ThT Cat. / ThT-Fluorescence (categorical): 0 (ThT-inactive (N-Fold <2))
[2]; Fig S10 panel E
  ThT Cat.: 0 (ThT-inactive (N-Fold <2))
[2]; ThT category, 1 if Rel. ThT >2
  ThT Cat,: 0 (ThT-inactive (N-Fold <2))
[2]; [9]
  ThT Cat.: 0 (ThT-inactive (N-Fold <2))
[3]
  CR / %: 66%
  CR: 66

## RGDSGGGGGGKIKIQIC
[1]
  Rel-EFC: 0,87
  Log10 Infection Rel EFC: -0,06
  Log10 of Rel to EFC (Feb2021): -0.06
[1]; [4]
  Log Infectivity: -0.0628
[1]; [5]
  Log Infectivity: -0.06
[1]; [6]
  Log10 Infection Rel EF-C: -0.06
[1]; [7]
  Log10 Infection Rel EF-C: -0.0628
[1]; [8]
  Log10 Infection Rel EF-C: -0.0628
[2]
  Tht category (> 2 to blank = +): 1 (ThT. Cat is 1, if Rel. ThT >2)
  ThT Cat. / ThT-Fluorescence (categorical): 1 (ThT. Cat is 1, if Rel. ThT >2)
[2]; Fig S10 panel E
  ThT Cat.: 1 (ThT. Cat is 1, if Rel. ThT >2)
[2]; ThT category, 1 if Rel. ThT >2
  ThT Cat,: 1 (ThT. Cat is 1, if Rel. ThT >2)
[2]; [9]
  ThT Cat.: 1 (ThT. Cat is 1, if Rel. ThT >2)
[3]
  CR / %: 54.7%
  CR: 54.68

## RGDSKIKIQIC
[1]
  Rel-EFC: 0,6
  Log10 Infection Rel EFC: -0,22
  Log10 of Rel to EFC (Feb2021): -0.22
[1]; [4]
  Log Infectivity: -0.2249
[1]; [5]
  Log Infectivity: -0.22
[1]; [6]
  Log10 Infection Rel EF-C: -0.22
[1]; [7]
  Log10 Infection Rel EF-C: -0.2249
[1]; [8]
  Log10 Infection Rel EF-C: -0.2249
[2]
  Tht category (> 2 to blank = +): 1 (ThT. Cat is 1, if Rel. ThT >2)
  ThT Cat. / ThT-Fluorescence (categorical): 1 (ThT. Cat is 1, if Rel. ThT >2)
[2]; Fig S10 panel E
  ThT Cat.: 1 (ThT. Cat is 1, if Rel. ThT >2)
[2]; ThT category, 1 if Rel. ThT >2
  ThT Cat,: 1 (ThT. Cat is 1, if Rel. ThT >2)
[2]; [9]
  ThT Cat.: 1 (ThT. Cat is 1, if Rel. ThT >2)
[3]
  CR / %: 43.4%
  CR: 43.38
